Assay [1] concerns the target T1, O-Linked N-acetylglucosaminyltransferase (OGT) (Homo sapiens, UniProt O15294).
T1 sequence (O15294 1-1046): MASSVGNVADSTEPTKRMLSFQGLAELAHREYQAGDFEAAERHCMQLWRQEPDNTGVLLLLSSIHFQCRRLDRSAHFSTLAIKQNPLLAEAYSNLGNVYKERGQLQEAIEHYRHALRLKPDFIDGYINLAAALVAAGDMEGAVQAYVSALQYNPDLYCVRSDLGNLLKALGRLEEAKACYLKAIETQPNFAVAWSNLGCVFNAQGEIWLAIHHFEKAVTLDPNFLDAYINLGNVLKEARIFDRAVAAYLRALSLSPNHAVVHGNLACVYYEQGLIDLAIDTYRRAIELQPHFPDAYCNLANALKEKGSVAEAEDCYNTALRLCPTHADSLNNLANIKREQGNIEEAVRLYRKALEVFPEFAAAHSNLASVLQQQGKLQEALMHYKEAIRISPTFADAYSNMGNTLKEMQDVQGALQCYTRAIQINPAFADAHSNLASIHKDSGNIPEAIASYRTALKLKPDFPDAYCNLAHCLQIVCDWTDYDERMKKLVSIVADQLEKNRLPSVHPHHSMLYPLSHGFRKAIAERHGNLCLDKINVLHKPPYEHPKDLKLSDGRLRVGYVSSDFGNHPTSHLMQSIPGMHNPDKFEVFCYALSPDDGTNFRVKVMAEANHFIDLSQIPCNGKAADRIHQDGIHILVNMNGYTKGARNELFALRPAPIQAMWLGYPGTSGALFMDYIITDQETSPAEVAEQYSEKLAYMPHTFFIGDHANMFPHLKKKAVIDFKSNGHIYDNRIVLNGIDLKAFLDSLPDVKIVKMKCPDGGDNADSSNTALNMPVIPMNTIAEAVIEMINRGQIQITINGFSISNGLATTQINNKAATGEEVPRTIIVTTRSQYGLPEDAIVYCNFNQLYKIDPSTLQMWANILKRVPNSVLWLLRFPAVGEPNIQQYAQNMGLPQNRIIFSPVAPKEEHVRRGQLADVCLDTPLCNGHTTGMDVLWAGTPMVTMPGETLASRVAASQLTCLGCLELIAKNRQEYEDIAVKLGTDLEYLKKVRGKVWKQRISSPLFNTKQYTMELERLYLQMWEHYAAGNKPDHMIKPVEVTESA
As to the kind of experiment: Glycosylation of CK2-derived polypeptide substrates by OGT, quantified by LC/MS. The following applies: for Relative rate of glycosylation: OGT, LC/MS peak integration at 445 nm, relative to wt polypeptide 4.1. The class given is biochemical. The protocol: To address the first requirement, a panel of polypeptides was synthesized based on a truncated version of the CKII polypeptide [CKII peptide PGGSTPVSSNAMM (SEQ ID NO:20)]. The polypeptide was modified from the native sequence in several ways. First, a fluorescein was installed on the N-terminus during synthesis. Second, a lysine was added to the C-terminus so that a second dye or quencher could be installed by reaction with the appropriate N-hydroxysuccinimidyl ester. These modifications allowed two different FRET approaches. The first approach required the installation of a coumarin derivative on the polypeptide. The second required installation of a quencher molecule, which measured total fluorescence intensity. (See Examples 2 and 3). Finally, the residues on either side of the glycosylated serine of the truncated CK2 polypeptide were changed to phenylalanine, leucine or arginine to introduce proteolytic cleavage sites for common proteases (such as trypsin, chymotrypsin and thermolysin) that were not present in the native sequence. It was reasoned that cleavage adjacent to the glycosylation site would yield the largest difference in the rate of proteolysis between glycosylated and native polypeptides. This series of polypeptides was synthesized and screened for OGT activity using by LC/MS. Peak integration (measured at 445 nm) was used to quantitative products and reactants and mass spectrometry was used to confirm peak identity. The results are presented in Table 2 and some of the peptides (peptide 4.1, 4.4, and 4.5 top to bottom) are illustrated in FIG. 2.
All polypeptides were purchased from Tufts University core facility (Boston, Mass.). The mass of crude product was verified and the polypeptides were labeled under the following conditions: Polypeptide was dissolved in 250 mM NaHCO3 buffer, pH 8.2 at a 5 mM concentration and the appropriate NHS-Ester (0.5 eq) was dissolved in DMSO (a volume of 1/10 of the aqueous buffer was used). The DMSO solution was quickly added to the peptide and the reaction proceeded at room temperature for 30 minutes. This was repeated 2 more times (four more times for polypeptide 4.10). The reaction was monitored by LC/MS. LCMS conditions for polypeptides 4.1-4.8—Agilent Eclipse 5 μm XD8-C8 column, 0→100% CH3CN+0.1% formic acid over 20 minutes. LCMS conditions for polypeptides 4.9-4.10—Agilent Eclipse 5 μm XD8-C8 column, 0→100% CH3CN+0.1% NH4OH over 20 minutes. Each polypeptide was purified by preparative HPLC. Conditions for polypeptides 4.1-4.8 were: —Phenomonex Luna C18 5 μm column, 0→100% CH3CN+0.1% TFA over 40 minutes. Conditions for polypeptides 4.9-4.10 were: —Phenomonex Luna C18 5 μm column, 0→100% CH3CN+0.1% NH4OH over 40 minutes. Products were confirmed by LC/MS. Preparative Glycosylation of Labeled Polypeptides: Purified FRET labeled polypeptides were added (20-50 μM final concentration) to assay buffer (50 mM Tris, 20 mM CaCl2, 0.05% Tween-20, 0.05% NP-40, pH=7.8), 200 μM UDP-GlcNAc, 0.05 units of alkaline phosphatase, and 5 μM OGT. Reactions were monitored using LCMS: conditions for polypeptides 4.1-4.8—Agilent Eclipse 5 μm XD8-C8 column, 10→60% CH3CN+0.1% formic acid over 20 minutes. LCMS conditions for polypeptides 4.9-4.10—Agilent Eclipse 5 μm XD8-C8 column, 10→60% CH3CN+0.1% NH4OH over 20 minutes, and when complete were purified using the same column and conditions. Polypeptides 4.1-4.8 were quantitated by absorption at 492 nm using an extinction coefficient of 86,000 cm^−1M^−1; polypeptide 4.9 was quantitated by absorption at 530 nm using an extinction coefficient of 26,000 cm^−1M^−1; polypeptide 4.10 was quantitated by absorption at 530 nm using an extinction coefficient of 52,000 cm^−1M^−1. Fluorescence Resonance Energy Transfer (FRET)-Peptide Approach #1

Assay [2] concerns the target T2, sOGT (Homo sapiens, UniProt O15294).
T2 sequence (O15294 1-665 isoform O15294-4): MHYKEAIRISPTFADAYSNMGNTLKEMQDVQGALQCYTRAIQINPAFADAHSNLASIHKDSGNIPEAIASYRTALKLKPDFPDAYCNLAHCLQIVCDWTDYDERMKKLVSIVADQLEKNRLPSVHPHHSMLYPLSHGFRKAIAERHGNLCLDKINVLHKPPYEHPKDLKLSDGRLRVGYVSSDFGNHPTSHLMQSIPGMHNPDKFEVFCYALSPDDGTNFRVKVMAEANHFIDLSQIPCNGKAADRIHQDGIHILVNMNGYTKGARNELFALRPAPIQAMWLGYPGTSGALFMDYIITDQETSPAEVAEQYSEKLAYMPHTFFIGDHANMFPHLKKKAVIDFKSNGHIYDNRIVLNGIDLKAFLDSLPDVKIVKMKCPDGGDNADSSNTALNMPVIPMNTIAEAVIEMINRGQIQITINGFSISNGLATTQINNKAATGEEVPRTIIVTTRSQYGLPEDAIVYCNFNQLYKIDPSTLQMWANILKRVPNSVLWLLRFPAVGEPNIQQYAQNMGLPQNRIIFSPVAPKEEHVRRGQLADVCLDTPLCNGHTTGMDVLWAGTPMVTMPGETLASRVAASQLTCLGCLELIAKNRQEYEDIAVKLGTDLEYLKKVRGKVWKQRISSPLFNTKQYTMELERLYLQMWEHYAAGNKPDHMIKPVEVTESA
The experiment in a line: High-throughput kinetic protease-protection screen with polypeptide 4.10. The class given is biochemical. The following applies: 25 μg/mL (~70 μM); hit = <70% activity in one duplicate and <80% in the second. The source says:
With the final assay conditions established, 124,226 compounds were screened in duplicate at the ICCB (Harvard University, Boston, Mass.) over two days; the highest throughput of any assay performed at the ICCB screening facility. Small molecule libraries from several commercial vendors were screened as well as known bioactive compounds, natural product extracts, and molecules made using diversity oriented synthetic approaches. Included in this set were 52,026 of the 64,416 compounds screened using a donor displacement method such as that described in PCT application PCT/US2007/008806, which was filed Apr. 11, 2007. The vast majority compounds screened were small molecules (average MW ˜350) that were optimized to have favorable physico-chemical properties such as solubility, decreased toxicity, and increased stability. All of the commercial compounds at the ICCB are plated at a stock concentration of 5 mg/mL, which, given a 20 μL reaction volume, corresponds to a 25 μg/mL inhibitor concentration in each well. The format of most compound plates at the ICCB has the last two columns of each 384-well plate empty. This allowed each assay plate to have column of negative controls (run without inhibitor) and column of positive controls (run without sOGT), which allowed a Z′ to be calculated for each plate. These values typically ranged from 0.7-0.8.
Data workup began by calculating the average positive and negative control values independently for both duplicates of each plate. Using the linear relationship between percent glycosylation and fluorescence shown above (FIG. 7), the percent glycosylation was calculated for each well, with 0% corresponding to the average value of the positive controls and 100% corresponding to the average value of the negative controls. In actuality the range is roughly […] glycosylated polypeptide since the reaction was not allowed to proceed to completion. However, this simplification was employed to facilitate the comparison of different sets of plates. There were remarkably few compounds that reproducibly appeared to inhibit OGT, which enabled hits to be selected using a very high cutoff. Compounds with <70% activity in one duplicate and <80% activity in the second duplicate were scored as hits. Even using this lax criterion, the total unfiltered hit set only numbered 84, corresponding to a hit rate of 0.065%.
384-well plates (Costar #3710) were filled using a liquid handling robot with 10 μL of a mixture of 8 μM polypeptide 4.10, 40 μM UDP-GlcNAc, and buffer (50 mM Tris, 20 mM CaCl2, 0.05% Tween-20, 0.05% NP-40, pH=7.8, 500 μM tris(hydroxypropyl)phosphine). Compound libraries were then transferred to the assay plates using a 100 nL pin array and 10 μL of 500 nM sOGT in buffer (50 mM Tris, 20 mM CaCl2, 0.05% Tween-20, 0.05% NP-40, pH=7.8, 500 μM tris(hydroxypropyl)phosphine) was added using a liquid handling robot. The compounds were assayed at a concentration of 25 μg/mL or ˜70 μM, assuming an average compound MW of 350. After 2-3 hours, 20 μL of a 20 ng/mL proteinase K solution in buffer (50 mM Tris, 20 mM CaCl2, 0.05% Tween-20, 0.05% NP-40, pH=7.8) was added and allowed to react for 30-90 minutes. The plates were read using a Perkin-Elmer Envision® microplate reader with a 480 nm excitation filter and 530 nm emission filter.

Non-standard residues stand in square brackets, D forms with d. Primed or numbered codes have the meaning given here. No end group written: not given here. *: point of attachment. FITC = O=C1OC2(c3ccc(O)cc3Oc3cc(O)ccc32)c2ccc(NC(=S)*)cc21; Aha′ = not defined here

In the case of “FITC(Aha)STPRSSANMK ({FITC}-[Aha′]STPRSSANMK; reading uncertain; also: printed as FITC(Aha)STPRSSANMK) [Polypeptide 4.3]”, the “Relative rate of glycosylation” value in assay [1] turned out to be 0. For the compound “FITC(Aha)STPVSRANMK(QXL ™ 520)R K(QXL ™ 520) ({FITC}-[Aha′]STPVSRANMK(QXL 520)RK(QXL 520); reading uncertain; also: printed as FITC(Aha)STPVSRANMK(QXL ™ 520)R K(QXL ™ 520)) [Polypeptide 4.10]”, in assay [1] (more soluble variant vs earlier polypeptides), the “increase of glycosylation rate” value is 2-3 fold. Consider “FITC(Aha)STPVSSANMK ({FITC}-[Aha′]STPVSSANMK; reading uncertain; also: printed as FITC(Aha)STPVSSANMK) [Polypeptide 4.1]”, for which, in assay [1] (FIG. 2, natural (wild-type) sequence set as reference), the relative glycosylation rate is listed as 100%. Moreover, the “Relative rate of glycosylation” value in assay [1] came to 1. For the compound `Cl.Cl.N=C(N)c1cccc(NC(=O)Nc2cccc(C(=N)N)c2)c1` [Compound 10], the “hit in the high throughput screen” value in assay [2] was “singleton hits”. `CCn1cc(C(=O)N2CCOCC2)c(=O)c2cc(S(=O)(=O)N(C)C)ccc21` [Compound 18]: the “hit in the high throughput screen” value in assay [2] is “singleton hits”. Regarding `Clc1cccc(C(c2nnc(-c3ccccc3)o2)N2CCN(c3ccccc3)CC2)c1` (stereo not shown) [Compound 15], in assay [2], the “hit in the high throughput screen” value is “singleton hits”. Take `Fc1ccc(NC2=NCCN2)cc1` [Compound 21]: in assay [2], the “hit in the high throughput screen” value was “singleton hits”. Still for that read-out and setting: in the case of `COc1cccc(/N=C\c2c[nH]c3ccccc23)c1` [Compound 5] it was “hits”. Take `O=C(O)[C@H](Cc1ccccc1)N1Cc2ccccc2C1=O` [Compound 17]: the “hit in the high throughput screen” value in assay [2] is “singleton hits”. As for `CSC(SC)=C(C#N)S(=O)(=O)c1ccc(Cl)cc1` [Compound 3], in assay [2], the “hit in the high throughput screen” value was “hits”.

As to `O=C(/C=C/c1cccs1)Nc1scc(-c2ccccc2)c1C(=O)O` [Compound 2], in assay [2], the “hit in the high throughput screen” value is reported as “singleton hits”. Regarding “FITC(Aha)STPFSSANMK ({FITC}-[Aha′]STPFSSANMK; reading uncertain; also: printed as FITC(Aha)STPFSSANMK) [Polypeptide 4.2]”, the “Relative rate of glycosylation” value in assay [1] is reported as 0.15.

For `Cc1cc(C)c2c(C(=O)O)cc(O)nc2c1` [Compound 6], the “hit in the high throughput screen” value in assay [2] is on record as “singleton hits”.

For the compound `O=C1OCc2ccccc21` [Compound 16], in assay [2], the “hit in the high throughput screen” value is recorded as “singleton hits”. Consider `N#CSc1cc(SC#N)c(N)nc1N` [Compound 4], for which, in assay [2], the “hit in the high throughput screen” value was “hits”.

Source of the values: patent US8993718B2, “Methods and compositions for detecting and modulating O-glycosylation” (President and Fellows of Harvard College, priority 2007, dated 2015).
